In general, Kd refers to a measure of binding affinity in units of concentration.

Holding throughout (assay): Fluorescence quenching titration, thermodynamic dissociation constant (KD)
For test [1], the target named is T1, human FGF-2 mutant gln¹²⁸FGF-2 (lysine-128 replaced by glutamine) (Homo sapiens, UniProt P09038, A136E/K261Q/S138E).
T1 construct: a synthetic gene encoding the 155 amino acid form of human FGF-2; made in house; host or cells: E. coli BL21 plys S
The format is binding. To be noted: tryptophan fluorescence quenching, 10 mM Tris-HCl, pH 7.4, 2 mM dithiothreitol, read-out: KD BCDS. As for the experimental part: (§1) FGF-2 contains a single tryptophan residue at position 123. […] Therefore, the fluorescence properties of FGF-2 and FGF-2 mutants in the presence and absence of heparin and a heparin mimic, β-cyclodextran tetradecasulfate (BCDS) are evaluated in this example.
(§2) Fluorescence titration measurements are conducted in a Perkin-Elmer LS-5 fluorospectrometer using excitation and emission wavelengths of 290 nm and 350 nm, respectively. Two milliliters of FGF solution in 10 mM Tris-HCl, pH 7.4, containing 2 mM of dithiothreitol are placed in a cuvette. […] Concentrations of FGF-2 and gln^128,138FGF-2 are 370 nM and 280 nM, respectively. […] An equivalent tryptophan residue, Trp122, exists in acidic FGF (FGF-1), for which similar fluorescence quenching is obtained.
(§3) The thermodynamic dissociation constant (KD) is obtained from plots of fluorescence intensity versus ligand concentration. The fluorescence intensity data are fitted by non-linear regression by using equation 1 below, where FO is observed fluorescence intensity, FI is initial intensity, Δ F is the difference between final and the initial fluorescence intensities, Ct is the total FGF protein concentration, KD is the thermodynamic dissociation constant, and Lt is the total heparin concentration. It is assumed in equation 1 that the stoichiometry of FGF and heparin in the complex is 1:1. A graphic software Kaleidagraph is used for handling data. [formula] However, in the fluorescence titration experiments the titration curves shown in Figure 1 cannot be fitted directly using equation 1. […] Since the heparin preparation used here is composed of an average of 20 sulfated monosaccharide units per chain, it is likely that more than one FGF molecule is bound per oligosaccharide chain. […] Moreover, it is reasonable to assume that, in the absence of any data to indicate otherwise, the binding sites on heparin are independent and the binding affinities are similar. […] Under this assumption, the effective concentration of the ligand needs to be adjusted by the multiplication of the actual concentrations by the number of possible binding sites. If n is the average number of FGF molecules bound per oligosaccharide, then equation 1 can be modified to give [formula] in which the effective concentration of the ligand is increased by n times.
(§4) Equation 2 is used to fit the data shown in Figure 1 and the values of the two variables, KD and n, are determined by non-linear regression of at least three titration curves for each molecule. An average of four (n = 4) FGF-2 molecules interacting with heparin is obtained. Four binding sites on each heparin molecule are assumed for mutant gln^128,138FGF-2. Since the molecular weight of heparin used in the experiments is about 5000, which has an average of 20 monosaccharide units, about 4 to 6 monosaccharide units may interact with each FGF molecule. Two to four FGF molecules can bind to one BCDS (which has a calculated molecular weight of 2226). This estimate is in good agreement with that reported by Mach, et al. (Biochemistry 32: 5480-5489 (1993)) of a stoichiometry of 1:4-6 determined by a variety of different approaches including light scattering and analytical ultracentrifugation analyses.
(§5) Table I presents the thermodynamic dissociation constants obtained from fluorescence quenching experiments for the wild-type FGF and the mutants using heparin or BCDS.

Test [2] addresses T2, human FGF-2, wild-type (recombinant glu^3,5FGF-2) (Homo sapiens, UniProt P09038, A136E/S138E).
T2 construct: a synthetic gene encoding the 155 amino acid form of human FGF-2; made in house; host or cells: E. coli BL21 plys S (stated for the mutants; inferred for the wild type)
It counts as binding. The settings on record: wild-type FGF-2; tryptophan fluorescence quenching, 10 mM Tris-HCl, pH 7.4, 2 mM dithiothreitol; read-out: KD BCDS. As for the experimental part: as §1, §2, §3, §4, §5

Test [3] concerns the target T3, human FGF-2 mutant gln^128,138FGF-2 (lysine-128 and lysine-138 replaced by glutamine) (Homo sapiens, UniProt P09038, A136E/K261Q/K271Q/S138E).
T3 construct: a synthetic gene encoding the 155 amino acid form of human FGF-2; made in house; host or cells: E. coli BL21 plys S
The format is binding. The settings on record: tryptophan fluorescence quenching, 10 mM Tris-HCl, pH 7.4, 2 mM dithiothreitol, read-out: KD BCDS. The procedure: as §1, §2, §3, §4, §5

Test [4] concerns the target T4, human FGF-2 mutant gln^129,134FGF-2 (arginine-129 and lysine-134 replaced by glutamine) (Homo sapiens, UniProt P09038, A136E/K267Q/R262Q/S138E).
T4 construct: a synthetic gene encoding the 155 amino acid form of human FGF-2; made in house; host or cells: E. coli BL21 plys S
It counts as binding. To be noted: tryptophan fluorescence quenching, 10 mM Tris-HCl, pH 7.4, 2 mM dithiothreitol, read-out: KD BCDS. As for the experimental part: as §1, §2, §3, §4, §5

For test [5], the target named is T5, human FGF-2 mutant gln¹³⁴FGF-2 (lysine-134 replaced by glutamine) (Homo sapiens, UniProt P09038, A136E/K267Q/S138E).
T5 construct: a synthetic gene encoding the 155 amino acid form of human FGF-2; made in house; host or cells: E. coli BL21 plys S
It counts as binding. The settings on record: tryptophan fluorescence quenching, 10 mM Tris-HCl, pH 7.4, 2 mM dithiothreitol, read-out: KD BCDS. The procedure: as §1, §2, §3, §4, §5

The target in test [6] is T6, human FGF-2 mutant gln¹²⁹FGF-2 (arginine-129 replaced by glutamine) (Homo sapiens, UniProt P09038, A136E/R262Q/S138E).
T6 construct: a synthetic gene encoding the 155 amino acid form of human FGF-2; made in house; host or cells: E. coli BL21 plys S
It counts as binding. To be noted: tryptophan fluorescence quenching, 10 mM Tris-HCl, pH 7.4, 2 mM dithiothreitol, read-out: KD BCDS. The procedure:
as §1, §2, §3, §4, §5

For test [7], the target named is T7, human FGF-2 mutant gln¹³⁸FGF-2 (lysine-138 replaced by glutamine) (Homo sapiens, UniProt P09038, A136E/K271Q/S138E).
T7 construct: a synthetic gene encoding the 155 amino acid form of human FGF-2; made in house; host or cells: E. coli BL21 plys S
It counts as binding. The settings on record: tryptophan fluorescence quenching, 10 mM Tris-HCl, pH 7.4, 2 mM dithiothreitol, read-out: KD BCDS. The procedure:
as §1, §2, §3, §4, §5

In another test the target is FGF-1 (acidic FGF) (Homo sapiens, UniProt P05230). The settings on record: tryptophan fluorescence quenching, 10 mM Tris-HCl, pH 7.4, 2 mM dithiothreitol, fitted with n binding sites per ligand, read-out: KD BCDS. The procedure:
as §1, §2
The thermodynamic dissociation constant (KD) is obtained from plots of fluorescence intensity versus ligand concentration. The fluorescence intensity data are fitted by non-linear regression by using equation 1 below, where FO is observed fluorescence intensity, FI is initial intensity, Δ F is the difference between final and the initial fluorescence intensities, Ct is the total FGF protein concentration, KD is the thermodynamic dissociation constant, and Lt is the total heparin concentration. […] However, in the fluorescence titration experiments the titration curves shown in Figure 1 cannot be fitted directly using equation 1. […]

T3 sequence (P09038 134-288 A136E/S138E/K261Q/K271Q): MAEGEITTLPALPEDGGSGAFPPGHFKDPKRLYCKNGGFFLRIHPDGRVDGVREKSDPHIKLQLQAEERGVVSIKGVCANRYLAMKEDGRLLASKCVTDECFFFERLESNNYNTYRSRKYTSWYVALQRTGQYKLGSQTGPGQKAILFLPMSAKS
FGF-1 (acidic FGF), sequence (P05230 whole entry, species assumed): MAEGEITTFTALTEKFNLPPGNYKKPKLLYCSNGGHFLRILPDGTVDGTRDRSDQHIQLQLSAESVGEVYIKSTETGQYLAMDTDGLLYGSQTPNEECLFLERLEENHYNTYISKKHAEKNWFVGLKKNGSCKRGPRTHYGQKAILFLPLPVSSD
T4 sequence (P09038 134-288 A136E/S138E/R262Q/K267Q): as the sequence (P09038 134-288 A136E/S138E/K261Q/K271Q) above, with Q128K, R129Q, K134Q, Q138K counted along it
T7 sequence (P09038 134-288 A136E/S138E/K271Q): as the sequence (P09038 134-288 A136E/S138E/K261Q/K271Q) above, with Q128K counted along it
T6 sequence (P09038 134-288 A136E/S138E/R262Q): as the sequence (P09038 134-288 A136E/S138E/K261Q/K271Q) above, with Q128K, R129Q, Q138K counted along it
T1 sequence (P09038 134-288 A136E/S138E/K261Q): as the sequence (P09038 134-288 A136E/S138E/K261Q/K271Q) above, with Q138K counted along it
T5 sequence (P09038 134-288 A136E/S138E/K267Q): as the sequence (P09038 134-288 A136E/S138E/K261Q/K271Q) above, with Q128K, K134Q, Q138K counted along it
T2 sequence (P09038 134-288 A136E/S138E): as the sequence (P09038 134-288 A136E/S138E/K261Q/K271Q) above, with Q128K, Q138K counted along it

With β-cyclodextran tetradecasulfate [BCDS], the Kd in test [1] is 0.178 ± 0.044 µM; in test [2] it was 0.014 ± 0.007 µM; in test [3], 2.7 ± 0.6 µM; in test [4], 0.13 ± 0.027 µM; in test [5] it was 0.012 ± 0.0001 µM; in test [6] it was 0.003 ± 0.001 µM. Moreover, the Kd in test [7] is 0.228 ± 0.023 µM; on FGF-1 (acidic FGF), 0.004 ± 0.002 µM.

Values taken from patent EP0645451A1, “Heparin binding site structural analogues of fibroblast growth factors” (AMERICAN CYANAMID COMPANY, priority 1993, dated 1995).
